Assay results published in US12479847B2 (DANA-FARBER CANCER INSTITUTE, INC., priority 2019, dated 2025).

Columns and labels:
Test in all cases: KINOMEscan (ScanMAX) kinase profiling
Format in all cases: binding
panel of 468 kinases [1] = target: T1, panel of 468 kinases (Homo sapiens, UniProt P17948); conditions: FLT1; 1 μM; read-out: % control
T1 construct: purchased KINOMEscan (ScanMAX) service

panel of 468 kinases [2] = target: T2, panel of 468 kinases (Homo sapiens, UniProt P29323); conditions: EPHB2; 1 μM; read-out: % control
T2 construct: purchased KINOMEscan (ScanMAX) service
T2 sequence (P29323 19-1055): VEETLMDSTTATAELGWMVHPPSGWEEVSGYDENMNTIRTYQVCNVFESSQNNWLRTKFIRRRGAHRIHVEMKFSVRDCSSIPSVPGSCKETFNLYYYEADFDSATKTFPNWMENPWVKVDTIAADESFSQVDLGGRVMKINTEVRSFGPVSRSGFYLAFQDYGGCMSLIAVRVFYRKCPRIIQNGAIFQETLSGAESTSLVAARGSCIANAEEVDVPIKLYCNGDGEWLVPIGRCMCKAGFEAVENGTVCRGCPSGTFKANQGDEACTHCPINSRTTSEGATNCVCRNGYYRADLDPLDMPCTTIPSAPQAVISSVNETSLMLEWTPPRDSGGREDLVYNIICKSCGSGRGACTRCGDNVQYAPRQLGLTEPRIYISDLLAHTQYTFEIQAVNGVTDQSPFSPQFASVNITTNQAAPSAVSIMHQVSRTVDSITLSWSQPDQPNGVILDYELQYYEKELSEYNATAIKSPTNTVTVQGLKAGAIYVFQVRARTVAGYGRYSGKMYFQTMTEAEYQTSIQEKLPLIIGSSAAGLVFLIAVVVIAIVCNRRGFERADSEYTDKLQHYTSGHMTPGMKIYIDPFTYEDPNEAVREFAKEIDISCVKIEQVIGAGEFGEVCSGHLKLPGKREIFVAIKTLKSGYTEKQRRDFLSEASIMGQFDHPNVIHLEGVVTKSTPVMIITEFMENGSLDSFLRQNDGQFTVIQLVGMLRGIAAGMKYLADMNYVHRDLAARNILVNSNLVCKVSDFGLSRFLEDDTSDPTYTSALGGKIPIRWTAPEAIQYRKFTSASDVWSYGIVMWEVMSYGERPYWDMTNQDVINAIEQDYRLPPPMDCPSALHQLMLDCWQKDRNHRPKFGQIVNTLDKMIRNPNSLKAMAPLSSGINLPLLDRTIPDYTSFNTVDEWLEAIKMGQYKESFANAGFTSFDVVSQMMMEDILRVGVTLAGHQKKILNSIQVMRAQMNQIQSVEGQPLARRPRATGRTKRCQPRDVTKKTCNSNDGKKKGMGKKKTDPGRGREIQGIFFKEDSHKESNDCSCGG

panel of 468 kinases [3] = target: T3, panel of 468 kinases (Homo sapiens, UniProt P45984); conditions: JNK2; 1 μM; read-out: % control
T3 construct: purchased KINOMEscan (ScanMAX) service
T3 sequence (P45984 whole entry): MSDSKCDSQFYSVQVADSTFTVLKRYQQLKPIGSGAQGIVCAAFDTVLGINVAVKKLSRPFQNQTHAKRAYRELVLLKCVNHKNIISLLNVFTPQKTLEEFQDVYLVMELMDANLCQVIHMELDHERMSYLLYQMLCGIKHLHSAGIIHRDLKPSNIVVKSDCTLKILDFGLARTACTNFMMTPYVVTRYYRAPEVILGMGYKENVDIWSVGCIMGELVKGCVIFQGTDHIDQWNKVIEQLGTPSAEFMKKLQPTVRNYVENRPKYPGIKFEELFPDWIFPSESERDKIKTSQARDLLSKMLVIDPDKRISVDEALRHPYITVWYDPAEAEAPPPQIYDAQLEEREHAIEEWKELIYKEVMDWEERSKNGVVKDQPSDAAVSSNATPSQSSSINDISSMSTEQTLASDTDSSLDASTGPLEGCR

panel of 468 kinases [4] = target: T4, panel of 468 kinases (Homo sapiens, UniProt Q07912); conditions: TNK2; 1 μM; read-out: % control
T4 construct: purchased KINOMEscan (ScanMAX) service
T4 sequence (Q07912 whole entry): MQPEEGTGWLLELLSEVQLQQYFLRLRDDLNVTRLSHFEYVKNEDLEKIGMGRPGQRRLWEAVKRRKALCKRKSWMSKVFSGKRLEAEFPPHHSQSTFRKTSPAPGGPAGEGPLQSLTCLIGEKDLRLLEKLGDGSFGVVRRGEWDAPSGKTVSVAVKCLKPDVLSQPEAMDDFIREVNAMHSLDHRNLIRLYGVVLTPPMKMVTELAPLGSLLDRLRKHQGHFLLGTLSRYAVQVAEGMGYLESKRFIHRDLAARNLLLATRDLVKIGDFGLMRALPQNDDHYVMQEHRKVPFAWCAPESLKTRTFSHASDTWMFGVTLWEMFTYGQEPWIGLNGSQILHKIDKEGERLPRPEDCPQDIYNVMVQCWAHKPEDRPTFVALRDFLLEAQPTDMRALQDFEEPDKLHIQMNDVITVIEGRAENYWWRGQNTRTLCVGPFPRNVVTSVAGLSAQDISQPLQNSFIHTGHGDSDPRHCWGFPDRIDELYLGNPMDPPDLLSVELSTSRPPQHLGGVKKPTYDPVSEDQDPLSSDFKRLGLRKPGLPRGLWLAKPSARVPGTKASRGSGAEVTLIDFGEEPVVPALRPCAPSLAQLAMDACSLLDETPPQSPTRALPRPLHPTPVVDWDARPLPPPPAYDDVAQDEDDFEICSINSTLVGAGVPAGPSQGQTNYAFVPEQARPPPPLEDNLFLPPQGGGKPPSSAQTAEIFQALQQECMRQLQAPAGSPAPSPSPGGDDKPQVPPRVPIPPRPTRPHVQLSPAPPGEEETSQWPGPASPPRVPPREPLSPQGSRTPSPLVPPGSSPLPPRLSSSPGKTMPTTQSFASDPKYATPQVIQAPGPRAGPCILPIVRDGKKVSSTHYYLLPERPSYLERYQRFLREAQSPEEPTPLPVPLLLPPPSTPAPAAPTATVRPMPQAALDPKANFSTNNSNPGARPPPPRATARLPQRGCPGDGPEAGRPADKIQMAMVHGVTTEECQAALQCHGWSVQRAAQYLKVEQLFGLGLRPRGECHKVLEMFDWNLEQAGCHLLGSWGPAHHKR

panel of 468 kinases [5] = target: T5, panel of 468 kinases (Homo sapiens, UniProt Q12852); conditions: DLK; 1 μM; read-out: % control
T5 construct: purchased KINOMEscan (ScanMAX) service
T5 sequence (Q12852 1-859): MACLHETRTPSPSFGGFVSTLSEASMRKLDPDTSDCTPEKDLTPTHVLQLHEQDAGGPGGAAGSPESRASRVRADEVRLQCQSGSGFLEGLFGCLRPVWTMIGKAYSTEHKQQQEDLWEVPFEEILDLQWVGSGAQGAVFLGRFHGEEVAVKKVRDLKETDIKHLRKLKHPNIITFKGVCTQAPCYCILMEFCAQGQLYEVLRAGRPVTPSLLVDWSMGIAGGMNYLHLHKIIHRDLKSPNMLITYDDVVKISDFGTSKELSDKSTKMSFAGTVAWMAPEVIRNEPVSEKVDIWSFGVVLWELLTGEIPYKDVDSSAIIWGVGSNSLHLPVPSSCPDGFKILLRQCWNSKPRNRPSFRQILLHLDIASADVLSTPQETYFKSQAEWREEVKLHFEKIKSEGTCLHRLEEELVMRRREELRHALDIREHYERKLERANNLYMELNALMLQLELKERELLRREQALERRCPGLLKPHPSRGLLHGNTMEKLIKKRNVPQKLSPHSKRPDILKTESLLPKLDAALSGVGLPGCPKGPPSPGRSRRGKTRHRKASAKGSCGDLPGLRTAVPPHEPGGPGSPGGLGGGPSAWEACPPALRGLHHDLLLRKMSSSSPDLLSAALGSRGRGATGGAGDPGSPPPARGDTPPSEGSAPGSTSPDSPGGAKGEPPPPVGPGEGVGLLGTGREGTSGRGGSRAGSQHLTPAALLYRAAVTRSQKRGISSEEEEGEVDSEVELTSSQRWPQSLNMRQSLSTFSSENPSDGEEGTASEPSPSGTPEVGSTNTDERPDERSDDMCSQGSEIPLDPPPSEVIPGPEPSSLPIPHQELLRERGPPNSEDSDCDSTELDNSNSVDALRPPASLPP

panel of 468 kinases [6] = target: T6, panel of 468 kinases (Homo sapiens, UniProt Q86Z02); conditions: HIPK1; 1 μM; read-out: % control
T6 construct: purchased KINOMEscan (ScanMAX) service
T6 sequence (Q86Z02 whole entry): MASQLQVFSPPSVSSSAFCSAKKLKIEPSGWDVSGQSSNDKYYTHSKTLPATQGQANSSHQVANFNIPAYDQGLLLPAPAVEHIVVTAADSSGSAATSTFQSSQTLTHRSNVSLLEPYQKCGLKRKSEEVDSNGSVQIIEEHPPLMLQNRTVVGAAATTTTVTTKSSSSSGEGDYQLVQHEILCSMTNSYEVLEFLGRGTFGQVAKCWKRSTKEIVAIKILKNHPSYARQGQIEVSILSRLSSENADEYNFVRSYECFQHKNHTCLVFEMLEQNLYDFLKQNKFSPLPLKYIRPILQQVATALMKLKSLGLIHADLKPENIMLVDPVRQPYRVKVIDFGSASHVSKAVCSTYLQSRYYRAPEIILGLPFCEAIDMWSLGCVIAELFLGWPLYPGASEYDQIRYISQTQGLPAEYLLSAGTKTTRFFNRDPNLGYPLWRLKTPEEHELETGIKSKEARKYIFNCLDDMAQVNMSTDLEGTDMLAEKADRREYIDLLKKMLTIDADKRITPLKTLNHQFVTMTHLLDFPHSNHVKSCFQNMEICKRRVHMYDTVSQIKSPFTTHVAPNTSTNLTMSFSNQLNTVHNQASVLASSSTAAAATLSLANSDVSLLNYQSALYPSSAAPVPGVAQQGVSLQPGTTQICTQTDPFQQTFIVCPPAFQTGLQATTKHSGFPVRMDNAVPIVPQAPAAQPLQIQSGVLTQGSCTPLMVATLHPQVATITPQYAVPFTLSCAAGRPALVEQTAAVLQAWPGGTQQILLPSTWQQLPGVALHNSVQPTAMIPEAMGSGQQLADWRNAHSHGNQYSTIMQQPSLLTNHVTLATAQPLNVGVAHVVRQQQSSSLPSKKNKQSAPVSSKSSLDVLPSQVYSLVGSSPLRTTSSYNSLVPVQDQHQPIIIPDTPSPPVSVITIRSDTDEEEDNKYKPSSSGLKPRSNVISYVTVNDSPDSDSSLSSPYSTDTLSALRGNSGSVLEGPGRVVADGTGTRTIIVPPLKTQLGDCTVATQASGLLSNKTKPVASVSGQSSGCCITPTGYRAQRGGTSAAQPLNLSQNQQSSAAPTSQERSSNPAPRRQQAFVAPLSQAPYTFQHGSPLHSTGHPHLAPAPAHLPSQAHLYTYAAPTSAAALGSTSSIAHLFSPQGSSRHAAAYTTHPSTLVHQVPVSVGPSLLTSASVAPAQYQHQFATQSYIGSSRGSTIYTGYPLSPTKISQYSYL

T1 sequence (P17948 27-1338): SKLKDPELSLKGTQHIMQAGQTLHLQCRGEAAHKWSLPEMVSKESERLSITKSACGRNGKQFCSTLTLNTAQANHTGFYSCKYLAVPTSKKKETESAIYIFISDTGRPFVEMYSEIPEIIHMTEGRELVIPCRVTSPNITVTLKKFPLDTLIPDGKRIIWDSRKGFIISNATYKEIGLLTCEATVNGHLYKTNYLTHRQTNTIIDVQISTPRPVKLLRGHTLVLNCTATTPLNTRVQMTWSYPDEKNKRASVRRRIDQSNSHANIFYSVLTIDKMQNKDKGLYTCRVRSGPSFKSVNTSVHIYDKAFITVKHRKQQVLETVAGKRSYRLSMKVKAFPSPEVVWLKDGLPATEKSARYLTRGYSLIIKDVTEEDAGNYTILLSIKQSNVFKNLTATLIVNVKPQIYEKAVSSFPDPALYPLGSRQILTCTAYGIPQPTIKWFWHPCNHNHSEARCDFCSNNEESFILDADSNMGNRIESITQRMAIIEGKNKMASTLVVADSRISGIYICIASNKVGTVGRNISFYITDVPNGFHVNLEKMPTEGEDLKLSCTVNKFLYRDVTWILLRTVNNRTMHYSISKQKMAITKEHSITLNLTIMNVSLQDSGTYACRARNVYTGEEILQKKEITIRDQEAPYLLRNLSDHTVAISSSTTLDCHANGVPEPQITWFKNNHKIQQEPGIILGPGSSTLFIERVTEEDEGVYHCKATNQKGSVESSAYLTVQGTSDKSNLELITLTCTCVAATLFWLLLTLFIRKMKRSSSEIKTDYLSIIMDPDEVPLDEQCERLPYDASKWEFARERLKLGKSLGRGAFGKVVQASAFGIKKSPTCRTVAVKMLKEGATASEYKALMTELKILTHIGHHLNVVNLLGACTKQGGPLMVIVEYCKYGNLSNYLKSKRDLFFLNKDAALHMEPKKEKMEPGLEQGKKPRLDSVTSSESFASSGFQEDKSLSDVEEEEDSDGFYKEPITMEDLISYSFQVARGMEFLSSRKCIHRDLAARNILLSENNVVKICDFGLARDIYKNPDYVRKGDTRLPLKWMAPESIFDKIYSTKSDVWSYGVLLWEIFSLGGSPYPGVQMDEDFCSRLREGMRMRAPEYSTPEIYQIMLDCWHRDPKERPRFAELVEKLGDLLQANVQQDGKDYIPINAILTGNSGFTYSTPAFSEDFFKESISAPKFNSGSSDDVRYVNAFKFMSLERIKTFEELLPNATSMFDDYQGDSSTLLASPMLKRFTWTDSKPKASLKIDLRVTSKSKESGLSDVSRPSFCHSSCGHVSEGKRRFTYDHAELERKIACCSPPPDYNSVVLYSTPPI

Row | Compound | remaining binding at 1 µM (panel of 468 kinases [1]) | remaining binding at 1 µM (panel of 468 kinases [2]) | remaining binding at 1 µM (panel of 468 kinases [3]) | remaining binding at 1 µM (panel of 468 kinases [4]) | remaining binding at 1 µM (panel of 468 kinases [5]) | remaining binding at 1 µM (panel of 468 kinases [6])
1 | CNc1nc(Nc2ccc(C(=O)N3CCC(N4CCOCC4)CC3)c3c2OCO3)nc2[nH]cc(Cl)c12 [Compound 75, (7-((5-chloro-4-(methylamino)-7H-pyrrolo[2,3-d]pyrimidin-2-yl)amino)benzo[d][1,3]dioxol-4-yl)(4-morpholinopiperidin-1-yl)methanone] | 73% | 100% | 0% | 100% | 100% | 23%
2 | CNc1nc(Nc2ccc(S(=O)(=O)N3CCC(N4CCOCC4)CC3)cc2OC)nc2[nH]cc(Cl)c12 [Compound 12, 5-chloro-N2-(2-methoxy-4-((4-morpholinopiperidin-1-yl)sulfonyl)phenyl)-N4-methyl-7H-pyrrolo[2,3-d]pyrimidine-2,4-diamine] | 100% | 100% | 26% | 100% | 95% | 48%
3 | CNc1nc(Nc2ccc(P3(=O)CCN(C4CCOCC4)CC3)cc2OC)nc2[nH]cc(Cl)c12 [Compound 77, 4-(4-((5-chloro-4-(methylamino)-7H-pyrrolo[2,3-d]pyrimidin-2-yl)amino)-3-methoxyphenyl)-1-(tetrahydro-2H-pyran-4-yl)-1,4-azaphosphinane 4-oxide] | 100% | 100% | 7.5% | 81% | 100% | 32%
